Laboratory results: publication PMC6290777, “Inhalation of the prodrug PI3K inhibitor CL27c improves lung function in asthma and fibrosis” (Nature Communications, 2018)

Tested on: Akt phosphorylation (Ser473) in CLL cells
Assay: Akt phosphorylation in CLL cells stimulated with anti-IgM
Type: cell-based, human
Settings: CL27c 10 nM–10 µM
Experimental: CLL cells (#Hs 505.T, ATCC® CRL-7306™) were cultured with RPMI additioned with 10% FBS and 100 μg/ml penicillin and streptomycin. The day of the assay CLL cells were seeded in 96-well plate at a concentration of 7 × 10^4 cells/ml in starving medium, RPMI free. The cells were starved for 6 h and subsequently pretreated for 1.5 h with CL27c at different concentrations. The cells were stimulated for 15 min with 15 μg/ml of goat anti-Human IgM-MU chain specific antibody (Sigma-Aldrich #I0759-1MG) and proteins were extracted with Laemmli buffer.
For all cell types, phosphorylated Akt (P-Akt, Ser 473, 1:100, Cell Signaling Technology #4060) production was detected by western blot analysis and quantified with ChemiDoc™ XRS system. P-Akt signals are normalized on endogenous. For the calculation of EC50 values, a percentage of residual P-Akt was calculated for each inhibitor concentration by using the control vehicle as 100%. To derive the EC50, all data were plotted on a dose response curve (Graph Pad software) and the EC50 was calculated by using the non-linear regression fit (equation [log agonist] vs response–variable slope).
Supplementary Figure 3: Inhibition of Akt phosphorylation at Ser473 (pAkt473) […]
panel). […] The respective EC50 was calculated by using nonlinear

For `COC(=O)c1cccc(Cn2cc(-c3cccc4c(=O)cc(N5CCOCC5)[nH]c34)nn2)c1` [CL27c], which Akt/PKB phosphorylation is on record?
Its Akt/PKB phosphorylation is “readily reduced Akt/PKB phosphorylation”.
